Test results reported in patent publication US9737525B2, “Small molecule activators of NRF2 pathway” (The General Hospital Corporation, priority 2013, dated 2017).

Columns and labels:
[1] = system: α-tubulin K40 and histone H3 acetylation; assay: Acetylation of SIRT2 substrates in wild type primary cortical neurons; assay type: cell-based, mouse
Experimental: To assess protein levels, cell extracts were prepared from cells washed with PBS and lysed with buffer containing 2% SDS, Complete EDTA-free Protease Inhibitor Cocktail (Roche) and 1 mM phenylmethylsulfonyl fluoride. To prepare brain extracts for analysis, frozen mouse cortical tissues were homogenized in PBS containing protease inhibitors with an Kontes Pellet Pestle (Kimble/Kontes). They were later sonicated and lysed overnight at 4° C. in 2× volume of lysis buffer containing 2% SDS and protease inhibitors. Protein concentrations in ST14A cell extracts and homogenized cortical tissues were evaluated using a BCA analysis kit and normalized. Samples were prepared in a SDS buffer containing DTT and separated on bis-acrylamide protein gels via electrophoresis and transferred onto a 0.2 μm PVDF membrane). Membranes were probed for NQO1 (Sigma N5288, 1:1,000), GCLM, (Abcam ab126704, 1:800), SIRT2 (Sigma S8447, 1:2,500), histone H3 (Cell Signaling 4499, 1:2,000), acetylated H3 (K56) (Millipore 04-1135, 1:500), TNFα (Abcam ab1793, 1:1,500), GADPH (Millipore MAB374, 1:10,000), actin (Sigma A2066, 1:1250), α-tubulin (Sigma T6074, 1:20,000), and acetylated α-tubulin (Sigma T6793, 1:2,500) overnight in 5% milk in PBST at 4° C. on a rocker. Membranes were thrice washed in PBST for 15 min on a shaker and incubated in either an anti-rabbit-HRP (Bio-Rad 170-5046, 1:10,000) or anti-mouse-HRP (Sigma A3682, 1:4,000) secondary solution as appropriate in 3% milk in PBST for 1 hr at room temperature on a rocker. After four washes of 15 min in PBST on a shaker, blots were visualized using SuperSignal West Pico Chemiluminescent Substrate (Pierce 34080) or SuperSignal West Dura Extended Duration Substrate (Thermo 34075) and exposed on Scientific Imaging Film (Kodak 864 6770).
Based upon the robust neuroprotection observed in HD model systems expressing both mutant HTT fragments and full-length mutant HTT, verification of the bioactivity of MIND4 as SIRT2 inhibitor in primary neurons was sought. […]

dopaminergic neurons = assay: MPTP mouse model of Parkinson's disease; assay type: in vivo
Experimental: Male C57BL/6 mice (˜25 g) from Charles River Laboratories, Wilmington, Mass. were housed in temperature- and humidity-controlled rooms with a 12 hr dark: light cycle and had free access to food and water. Subacute MPTP paradigm (20 mg/kg i.p. injection once daily for 4 days) was employed to test dose response of MIND4 at 30 mg/kg, 60 mg/kg, or 90 mg/kg (i.p. 10 min before and 50 min after each MPTP injection). The effective dose of 60 mg/kg was used in the subsequent experiments (i.p. 10 min before and 50 min after each MPTP injection). Control animals received saline (control for MPTP) and 10% propylene glycol and 90% dextrose as vehicle for MIND4 by i.p. Mice were sacrificed 7 days after the last MPTP administration and striatal DA and metabolite HVA were determined by high performance liquid chromatography (HPLC) coupled with electrochemical detection (ECD) Immunostaining for tyrosine hydroxylase (TH), a marker for dopaminergic neurons was performed using mouse anti-TH antibody (Sigma, ST. Louis, Mo.). Total numbers of TH positive neurons in the substantia nigra (SN) were counted under blinded conditions using the Bioquant Image Analysis System (R&M Biometrics, Nashville, Tenn.).
The protective effects of CPD4 have been confirmed in both acute and subchronic PTP paradigms by comprehensive behavioral, neurochemical, and neuropathological evaluations (FIG. 18). CPD4 was administrated i.p. at 20 mg/kg 10 min before and 50 min after MPTP 20 mg/kg i.p. once daily for 4 days (subchronic regimen) (FIG. 18A). High performance liquid chromatography (HPLC) coupled with electrochemical detection was used to show attenuated dopamine (DA) loss induced by MPTP in the striatum (FIG. 18B). Dopaminergic cell counts in the substantia nigra (SN) were also measured in treated mice and compared to the control (MPTP group) (FIG. 18C). Tyrosine hydroxylase (TH) immunostained dopaminergic neurons were also imaged in the SN (FIG. 18D).

primary microglia = assay: IL-6 release from primary microglia of wild type and YAC128 mice (ELISA); assay type: cell-based, mouse; details: CSE and INF-γ stimulated wild type and YAC128 microglia
Experimental: Whole brains were obtained from post-natal 1 to 3 day old wild type and YAC128 mouse pups on the FVB/N strain background and placed in Hanks Balanced Salt Solution (HBSS; Invitrogen) on ice. Meninges were removed and the remaining brain tissue was placed into growth medium (DMEM [Invitrogen], 10% FBS [PAA], 1% L-glutamine [Invitrogen], 1% penicillin/streptomycin [Invitrogen]), and homogenized using a 5 ml pipette. Cells of each brain were pelleted, re-suspended in growth medium and transferred into a T150 flask, cultured at 37° C. with 5% CO2. Growth medium was replaced after 24 hr and then every 7 days. After 18 to 21 days in culture, loosely attached microglia were harvested and seeded at 1.4×10^5 cells/ml with pre-incubated conditioned media into 96-well PRIMARIA™ tissue culture plates (BD Falcon). Adherent astrocytes were plated at 1.4×10^5 cells/ml in 10% FBS media for 24 hr in 96-well PRIMARIA™ tissue culture plates. After the initial isolation microglia and astrocytes were seeded at a density of 1.4×10^5 cells/ml into 96-well PRIMARIA™ tissue culture plates. […] Cells were lysed and total protein levels were determined using the microBCA kit (Thermo Scientific). Supernatants were analyzed using mouse IL-6 ELISA (e-Biocience) and IL-6 levels were normalized to total protein levels.

Row | SMILES | Acetylation of histone 3 K56 and K27 ([1]; primary neurons, 6 hr) | Acetylation of α-tubulin and Histone 3 K56 ([1]; wild type primary cortical neurons (DIV11), 6 hours) | MPTP induced DA loss in the striatum (dopaminergic neurons; 60 mg/kg i.p.) | Residual DA and DA turnover rate (HVA/DA) (dopaminergic neurons; 60 mg/kg vs MPTP group) | Dopaminergic neurons in the SN (stereological analysis) (dopaminergic neurons; vs MPTP alone group) | IL-6 secretion (primary microglia)
1 | O=[N+]([O-])c1ccc(Sc2nnc(COc3ccccc3)n2-c2ccccc2)c2ncccc12 [MIND4, 5-nitro-8-{[5-(phenoxymethyl)-4-phenyl-4H-1,2,4-triazol-3-yl]thio}quinoline] | increased acetylation of histone 3 K56 and K27 | only subtle increases of acetylation | mild but significant protection | increased level of residual DA and decreased DA turnover rate | more remaining dopaminergic neurons | –
2 | O=[N+]([O-])c1ccc(Sc2nnc(COc3ccccc3)n2-c2ccccc2)nc1 [MIND4-17] | – | – | – | – | – | reduced the amount of IL-6 secreted
